Tests used:
[1] = tested on: R. rhodochrous “CIBA” (NCIMB 41164); test: Relative nitrile hydratase activity after cultivation of R. rhodochrous "CIBA" with different carbon sources; format: cell-based, Rhodococcus rhodochrous; settings: 10 g/l, 64 h
Procedure: In context with the present invention, activity of an nitrile hydratase in the sense of the present invention can be determined as follows: First reacting 100 μl of a cell suspension, cell lysate, dissolved enzyme powder or any other preparation containing the supposed nitrile hydratase with 875 μl of an 50 mM potassium phosphate buffer and 25 μl of acrylonitrile at 25° C. on an eppendorf tube shaker at 1,000 rpm for 10 minutes. After 10 minutes of reaction time, samples are drawn and immediately quenched by adding the same volume of 1.4% hydrochloric acid. After mixing of the sample, cells are removed by centrifugation for 1 minute at 10,000 rpm and the amount of acrylamide formed is determined by analyzing the clear supernatant by HPLC. The concentration of acrylamide shall be between 0.25 and 1.25 mmol/l—if necessary, the sample has to be diluted accordingly and the conversion has to be repeated. The enzyme activity is deduced from the concentration of acrylamide by dividing the acrylamide concentration derived from HPLC analysis by the reaction time, which has been 10 minutes and by multiplying this value with the dilution factor between HPLC sample and original sample. […]) and/or to the nucleotide sequence of SEQ ID NO: 3 (beta-subunit of nitrile hydratase of R. rhodochrous: […]), provided that the polypeptide encoded by said polynucleotide is capable of catalyzing hydration of acrylonitrile to acrylamide (i.e. has nitrile hydratase activity) as described and exemplified herein. […] VIV) and/or to the amino acid sequence of SEQ ID NO: 4 (beta-subunit of nitrile hydratase of R. rhodochrous: […]), provided that said polypeptide is capable of catalyzing hydration of acrylonitrile to acrylamide as described and exemplified herein.
Different sugar/organic acid ratios were evaluated for different strains of Rhodococcus (R. rhodochrous “CIBA” (NCIMB 41164) and R. rhodochrous “J1” (FERM BP-1478)), in a microfermentation system.
The basic cultivation medium contained yeast extract (Biospringer) (1.25 g/l), KH2PO4 (10 g/l), K2HPO4 (10 g/l), (NH4)2SO4 (1 g/l), MgSO4*7H2O (0.375 g/l), CaCl2*2H2O (25 mg/l), Trace element solution (2.5 g/l) (see below), Co(NO3)2 (31.2 mg/l), anti-foam P2000 (BASF) (62.5 mg/l), urea (7 g/l), and ammonium glutamate (2.5 g/l) in H2O.
Trace Element Solution: Citric acid mono hydrate (40 g/l), ZnSO4*7H2O (11 g/l), (NH4)2Fe(SO4)2*6H2O (8.5 g/l), MnSO4*H2O (3 g/l), and CuSO4*5H2O (0.8 g/l) in H2O.
The medium was then supplemented with 10 g/l of carbon source (saccharide, organic acid or mixture of both as indicated in the Tables below). pH was adjusted to 6.6 using H3PO4 or NaOH. The medium was inoculated directly from cryo stocks to OD 0.05 (measured at 600 nm). Cultivation was carried out at 37° C. for 64 h at 1,100 rpm in a BioLector micro fermentation system (M2P Labs, Baesweiler, Germany) using 48-well flower plates with a working volume of 1.5 ml. After cultivation, samples were drawn, quenched with hydrochloric acid and nitrile hydratase activity was determined as described in Example 2.
Nitrile hydratase activities achieved with the saccharide as sole carbon source were set to 100%.

[2] = tested on: R. rhodochrous “J1” (FERM BP-1478); test: Relative nitrile hydratase activity after cultivation of R. rhodochrous "J1" with different carbon sources; format: cell-based, Rhodococcus rhodochrous; settings: 10 g/l, 64 h
Procedure: In context with the present invention, activity of an nitrile hydratase in the sense of the present invention can be determined as follows: First reacting 100 μl of a cell suspension, cell lysate, dissolved enzyme powder or any other preparation containing the supposed nitrile hydratase with 875 μl of an 50 mM potassium phosphate buffer and 25 μl of acrylonitrile at 25° C. on an eppendorf tube shaker at 1,000 rpm for 10 minutes. After 10 minutes of reaction time, samples are drawn and immediately quenched by adding the same volume of 1.4% hydrochloric acid. After mixing of the sample, cells are removed by centrifugation for 1 minute at 10,000 rpm and the amount of acrylamide formed is determined by analyzing the clear supernatant by HPLC. The concentration of acrylamide shall be between 0.25 and 1.25 mmol/l—if necessary, the sample has to be diluted accordingly and the conversion has to be repeated. The enzyme activity is deduced from the concentration of acrylamide by dividing the acrylamide concentration derived from HPLC analysis by the reaction time, which has been 10 minutes and by multiplying this value with the dilution factor between HPLC sample and original sample. […]
Different sugar/organic acid ratios were evaluated for different strains of Rhodococcus (R. rhodochrous “CIBA” (NCIMB 41164) and R. rhodochrous “J1” (FERM BP-1478)), in a microfermentation system. […]
The medium was then supplemented with 10 g/l of carbon source (saccharide, organic acid or mixture of both as indicated in the Tables below). pH was adjusted to 6.6 using H3PO4 or NaOH. The medium was inoculated directly from cryo stocks to OD 0.05 (measured at 600 nm). […] After cultivation, samples were drawn, quenched with hydrochloric acid and nitrile hydratase activity was determined as described in Example 2. […]

[3] = Only acid as carbon source, 37° C., fructose as sole carbon source = 100%
[4] = Only acid as carbon source, 37° C., glucose as sole carbon source = 100%
[5] = Only acid as carbon source, 37° C., mannose as sole carbon source = 100%
[6] = Only acid as carbon source, 37° C., ribose as sole carbon source = 100%
[7] = Only saccharide as carbon source, set to 100%

Row | SMILES | relative nitrile hydratase activity [1, 3] [%] | relative nitrile hydratase activity [1, 4] [%] | relative nitrile hydratase activity [1, 5] [%] | relative nitrile hydratase activity [1, 6] [%] | relative nitrile hydratase activity [2, 7] [%] | relative nitrile hydratase activity [1, 7] [%] | relative nitrile hydratase activity [2, 3] [%] | relative nitrile hydratase activity [2, 4] [%]
1 | O=C(O)CC(O)C(=O)O (stereo not drawn) [Malic, malic acid] | 39 | 197 | 1579 | 1693 | – | – | – | –
2 | O=C(O)CC(O)(CC(=O)O)C(=O)O [Citric, citric acid] | 32 | 164 | 1315 | 1409 | – | – | – | –
3 | O=C(CO)[C@@H](O)[C@H](O)[C@H](O)CO [Fructose, fructose] | – | – | – | – | 100 | 100 | – | –
4 | O=C(O)CCC(=O)O [Succinic, succinic acid] | 30 | 150 | 1204 | 1291 | – | – | – | –
5 | O=C[C@H](O)[C@H](O)[C@H](O)CO [Ribose, ribose] | – | – | – | – | – | 100 | – | –
6 | O=C(O)C(O)C(O)C(=O)O (stereo not drawn) [Tartaric, tartaric acid] | 34 | 173 | 1388 | 1487 | – | – | – | –
7 | CC(O)C(=O)O (stereo not drawn) [Lactic, lactic acid] | – | – | – | – | – | – | 73 | 1963
